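The compound was tested at five concentrations on cells cultured in 96-well plates, with a 48-hour exposure period. GI50 is the concentration that inhibits growth by half. Definition used: TGI = concentration required for complete inhibition of growth.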 Some results are limits rather than exact numbers.

The test system of the first assay is HCT-15 colon. Nature of the assay: growth of human tumour cells (NCI), 48 h.
As to `CC1(C)CCc2c(c3c(c4c(=O)c(O)c(-c5ccc(O)cc5)oc24)OC(C)(C)CC3)O1`, the GI50 is greater than 100 µM and the TGI was greater than 100 µM.
In turn, `CC(C)=CC(=O)C1c2cccc(O)c2C(=O)c2c(O)cc(C)cc21` (configuration not stated) registered a TGI of 10.6 µM.
For `O=C(O)CCc1coc2ccc(O)cc12`, the TGI was greater than 100 µM.
In the case of `O=C(Nc1ccccc1)NS(=O)(=O)c1ccc(-n2nc3c(c2-c2cccs2)Cc2ccccc2-3)cc1`, the GI50 is 16.9 µM and the TGI is 44.7 µM.
Turning to `CCCCCN(CCCCC)CC(O)c1cc(C)c2ccc3cc(C(C)C)ccc3c2c1` (configuration not stated), the GI50 is 1.81 µM and the TGI was determined as 3.43 µM.
Consider `COC(=O)CC1CCN(C#N)CC1CC[N+](=O)[O-]` (configuration not stated), for which the TGI is greater than 100 µM.
With `COc1ccc(-c2nc3sccn3c2/C(N)=N/C(=N)N)cc1OC`, the GI50 is greater than 100 µM and the TGI is greater than 100 µM.
As to `CC1=C(C(=O)Nc2ccc(Cl)c(Cl)c2)C(c2cccc(Oc3ccccc3)c2)NC(=S)N1` (configuration not stated), the GI50 is 8.93 µM and the TGI was 17.4 µM.
For the molecule `O=C(N/C(=C\c1ccc(/C=C(\NC(=O)c2ccccc2)c2nc3cc([N+](=O)[O-])ccc3[nH]2)cc1)c1nc2cc([N+](=O)[O-])ccc2[nH]1)c1ccccc1`, the TGI was greater than 100 µM.
Regarding `Cc1ccc(NC2=C(Cl)C(=O)N(Cc3ccccc3)C2=O)cc1O`, the GI50 was 33.5 µM and the TGI is greater than 100 µM.
Regarding `CCN(CCO)CC1CCCC2CCCCC21` (configuration not stated), the TGI was greater than 100 µM.
As for `CCCCOC(=O)C1OC(O[C@H]2CCC3(C)C(CCC4(C)C3CC=C3C5CC(C)(C)CCC5(C(=O)O)CC[C@]34C)C2(C)C)C(OC2OC(CO)C(O)C(O)C2O)C(OC2OC(CO)C(O)C(O)C2O)C1O` (some centres not stated), the GI50 is 20.9 µM and the TGI came out at 51 µM.
Regarding `COc1cc(Cc2cnc(/N=C3\C(=O)N(CN4CCN(c5c(F)cc6c(=O)c(C(=O)O)cn(C7CC7)c6c5OC)CC4C)c4ccc(F)cc43)nc2N)cc(OC)c1OC` (configuration not stated), the GI50 was 1.35 µM and the TGI turned out to be 5.18 µM.
The molecule `N#CC1C(C#N)C2(c3ccccc3)C(c3ccccc3)=NN(c3ccccc3)CC12` (configuration not stated) had a TGI greater than 100 µM.
Turning to `NC(=O)c1sc(-n2cnc3ccccc32)cc1OCc1ccccc1Br`, the GI50 was 6.95 µM and the TGI is greater than 25 µM.
For `C#Cc1ccc(-n2c(/C=C/c3ccc(C(F)(F)F)cc3)nc3ncccc3c2=O)cc1`, the GI50 was 1.74 µM and the TGI was 3.68 µM.
Take `Cc1cc(C)nc(NS(=O)(=O)c2ccc(NC(=O)c3ccc(Cl)c4c(Nc5ccc(S(=O)(=O)Nc6nc(C)cc(C)n6)cc5)c5ccccc5nc34)cc2)n1`: the TGI is greater than 100 µM.
As to `CCCCCN(CCCCC)CCCNc1c2c(nc3ccc(Cl)cc13)CCCC2`, the GI50 is 2.58 µM and the TGI was 11.1 µM.

The test system of another assay is HL-60(TB) leukemia. Nature of the assay: growth of human tumour cells (NCI), 48 h.
On to `CC(C)=CC(=O)C1c2cccc(O)c2C(=O)c2c(O)cc(C)cc21` (configuration not stated), for which the TGI was 9.15 µM.
`O=C(O)CCc1coc2ccc(O)cc12` yielded a TGI greater than 100 µM.
As for `CCCCCN(CCCCC)CC(O)c1cc(C)c2ccc3cc(C(C)C)ccc3c2c1` (configuration not stated), the GI50 was 2.04 µM and the TGI was 4.02 µM.
The molecule `COC(=O)CC1CCN(C#N)CC1CC[N+](=O)[O-]` (configuration not stated) gave a TGI greater than 100 µM.
As to `CC1=C(C(=O)Nc2ccc(Cl)c(Cl)c2)C(c2cccc(Oc3ccccc3)c2)NC(=S)N1` (configuration not stated), the GI50 was 15.9 µM and the TGI is greater than 50 µM.
In turn, `COc1cc2c(cc1OC)-c1c3cc(O)ccc3nn[n+]1CC2` came in with a TGI greater than 100 µM.
As to `Cc1ccc(NC2=C(Cl)C(=O)N(Cc3ccccc3)C2=O)cc1O`, the GI50 was 6.45 µM and the TGI was greater than 100 µM.
In turn, `N#CC(c1ccc(Cl)cc1)c1cccc(C(C#N)c2ccc(Cl)cc2)n1` (configuration not stated) had a TGI greater than 100 µM.
Turning to `CCCCOC(=O)C1OC(O[C@H]2CCC3(C)C(CCC4(C)C3CC=C3C5CC(C)(C)CCC5(C(=O)O)CC[C@]34C)C2(C)C)C(OC2OC(CO)C(O)C(O)C2O)C(OC2OC(CO)C(O)C(O)C2O)C1O` (some centres not stated), the GI50 was 22.3 µM and the TGI was found to be 52 µM.
Consider `COc1cc(Cc2cnc(/N=C3\C(=O)N(CN4CCN(c5c(F)cc6c(=O)c(C(=O)O)cn(C7CC7)c6c5OC)CC4C)c4ccc(F)cc43)nc2N)cc(OC)c1OC` (configuration not stated), for which the GI50 was 3.28 µM and the TGI was greater than 100 µM.
Molecule `N#CC1C(C#N)C2(c3ccccc3)C(c3ccccc3)=NN(c3ccccc3)CC12` (configuration not stated) showed a TGI greater than 100 µM.
In the case of `NC(=O)c1sc(-n2cnc3ccccc32)cc1OCc1ccccc1Br`, the GI50 is 1.28 µM and the TGI is greater than 25 µM.
Turning to `CN(C)C(=N)c1ccccc1`, the TGI was greater than 100 µM.
As to `C#Cc1ccc(-n2c(/C=C/c3ccc(C(F)(F)F)cc3)nc3ncccc3c2=O)cc1`, the GI50 is 2.07 µM and the TGI stood at 6.07 µM.
Take `Cc1cc(C)nc(NS(=O)(=O)c2ccc(NC(=O)c3ccc(Cl)c4c(Nc5ccc(S(=O)(=O)Nc6nc(C)cc(C)n6)cc5)c5ccccc5nc34)cc2)n1`: the TGI was found to be 11 µM.

Another assay deals with HT29 colon. Briefly: growth of human tumour cells (NCI), 48 h.
`CC1(C)CCc2c(c3c(c4c(=O)c(O)c(-c5ccc(O)cc5)oc24)OC(C)(C)CC3)O1`: the GI50 was greater than 100 µM and the TGI is greater than 100 µM.
`CC(C)=CC(=O)C1c2cccc(O)c2C(=O)c2c(O)cc(C)cc21` (configuration not stated) came in with a TGI of 20.5 µM.
The molecule `O=C(O)CCc1coc2ccc(O)cc12` gave a TGI greater than 100 µM.
For the molecule `O=C(Nc1ccccc1)NS(=O)(=O)c1ccc(-n2nc3c(c2-c2cccs2)Cc2ccccc2-3)cc1`, the GI50 is 26.7 µM and the TGI was greater than 100 µM.
Consider `COc1ccc(-c2nc3sccn3c2/C(N)=N/C(=N)N)cc1OC`, for which the GI50 is 58.4 µM and the TGI is greater than 100 µM.
Take `O=C(N/C(=C\c1ccc(/C=C(\NC(=O)c2ccccc2)c2nc3cc([N+](=O)[O-])ccc3[nH]2)cc1)c1nc2cc([N+](=O)[O-])ccc2[nH]1)c1ccccc1`: the TGI was greater than 100 µM.
The molecule `COc1cc2c(cc1OC)-c1c3cc(O)ccc3nn[n+]1CC2` showed a TGI greater than 100 µM.
The molecule `CCN(CCO)CC1CCCC2CCCCC21` (configuration not stated) returned a TGI greater than 100 µM.
Same read-out and setting: to `N#CC(c1ccc(Cl)cc1)c1cccc(C(C#N)c2ccc(Cl)cc2)n1` (configuration not stated) belongs greater than 100 µM.
As to `CCCCOC(=O)C1OC(O[C@H]2CCC3(C)C(CCC4(C)C3CC=C3C5CC(C)(C)CCC5(C(=O)O)CC[C@]34C)C2(C)C)C(OC2OC(CO)C(O)C(O)C2O)C(OC2OC(CO)C(O)C(O)C2O)C1O` (some centres not stated), the GI50 was 34.2 µM and the TGI was greater than 100 µM.
Regarding `COc1cc(Cc2cnc(/N=C3\C(=O)N(CN4CCN(c5c(F)cc6c(=O)c(C(=O)O)cn(C7CC7)c6c5OC)CC4C)c4ccc(F)cc43)nc2N)cc(OC)c1OC` (configuration not stated), the GI50 was 14.9 µM and the TGI was greater than 100 µM.

The values above are taken from PubChem BioAssay (NCI).
